This note sets out measurements from PMC10080691, “Enzyme-Responsive Double-Locked Photodynamic Molecular Beacon for Targeted Photodynamic Anticancer Therapy” (Journal of the American Chemical Society, 2023).

In data set [1] the test system is A549 human lung carcinoma cells. Briefly: Intracellular fluorescence by flow cytometry. The class given is cell-based. The method, then: The cellular uptake of 1 was studied using a range of cell lines with different expression levels of MMP-2, namely the MMP-2-overexpressed A549 human lung carcinoma cells[73] and U-87 MG human glioblastoma cells,[74] as well as the low MMP-2-expressed HeLa human cervical carcinoma cells[75] and HEK-293 human embryonic kidney normal cells.[76] The cells were incubated with 1 (2 μM) in a serum-free medium for 1 h and then in the neat medium for a further 6 h to provide sufficient time for enzymatic cleavage. […] Similar results were obtained by flow cytometry (Figure 5b). The quantified fluorescence intensity for A549 cells was 3.8-fold that for HEK-293 cells. […] After subsequent cleavage of the remaining GFLG linker by the intrinsic cathepsin B inside the cells, the probe was activated favorably, leading to higher intracellular fluorescence intensity.
The cells were pretreated with SB-3CT (10 μM) and/or CA-074 Me (25 μM) or simply the neat medium for 2 h, followed by incubation with 1 (2 μM) for a further 1 h. […] The fluorescence images of the cells under all these conditions were captured using a confocal laser scanning microscope. […] For the cells with pretreatment with both inhibitors, fluorescence due to 1 could hardly be seen. Similarly, for the cells being incubated with 14, the intracellular fluorescence was negligible. […]
Confocal Fluorescence Microscopic Studies […]
Background: In flow cytometry, cells or beads pass a laser one at a time.

Data set [2] is described as follows: Stability in PBS and cathepsin B working buffer without enzymes (absorption/fluorescence spectra). The class given is physicochemical. Conditions: 1 μM, PBS pH 7.4 or buffer pH 5.0 (25 mM NaOAc, 1 mM EDTA, 500 μM GSH), 0.1% Tween 80, 37 °C, 25 h.

With `CCN(CC)c1ccc2nc3ccc(/N=N/c4ccc(N(C)CCCNC(=O)OC[C@@H]5[C@@H]6CCc7nnn(CC(=O)NCCCC[C@@H]8NC(=O)CNC(=O)[C@H](CCCCN)NC(=O)[C@H](CCCNC(=N)N)NC(=O)[C@H](C(C)C)NC(=O)CNC(=O)[C@H](CC(C)C)NC(=O)[C@@H]9CCCN9C(=O)[C@H](CCCCN)NC(=O)[C@@H](N)CSCc9cc(COc%10ccc(C%11=C%12C(C)=C(I)C(/C=C/c%13ccc(OCCOCCOCCOC)cc%13)=[N+]%12[B-](F)(F)n%12c(/C=C/c%13ccc(OCCOCCOCCOC)cc%13)c(I)c(C)c%12%11)cc%10)cc(c9)CSC[C@@H](C(N)=O)NC(=O)[C@H](CCCCN)NC(=O)[C@H](CCCCN)NC(=O)CNC(=O)[C@H](CC(C)C)NC(=O)[C@H](Cc9ccccc9)NC(=O)CNC(=O)[C@H](CCCCN)NC(=O)CNC8=O)c7CC[C@@H]65)cc4)cc3[n+](-c3ccccc3)c2c1` [compound 1], the “intracellular fluorescence intensity, A549 relative to HEK-293 cells” value in data set [1] (2 μM, 1 h in serum-free medium, then 6 h in neat medium, three independent experiments) is listed as 3.8 fold. Further, the “intracellular fluorescence intensity, untreated cells relative to cells pretreated with the two inhibitors” value in data set [1] (A549, 2 μM 1 h + 6 h, SB-3CT (10 μM) and CA-074 Me (25 μM) 2 h pretreatment) was 5.6 fold. In addition, in data set [2], the “stability in the absence of enzymes” value was “stable”.
